Laboratory results published in patent publication US9045421B2, “Reagent and method for detection of carboxylic acids by mass spectrometry” (University of Washington, priority 2010, dated 2015).

Tested on: primary human bronchial cells
Assay: Eicosanoid formation in calcium ionophore stimulated primary bronchial epithelial cells (LC/ESI-MSMS of AMPP amides)
Format: cell-based
Settings: +Ca ionophore (A23187, 10 uM, 20 min, 37° C.); 0.47 million cells per sample
Description: The University of Washington Institutional Review Board approved the studies involving human subjects, and written informed consent was obtained from all participants. Primary bronchial epithelial cells were isolated from a volunteer with asthma during bronchoscopy using a nylon cytology brush of cells from subsegmental airways. To establish primary culture, the epithelial cells were seeded into a culture vessel coated with type 1 collagen in bronchial epithelial basal media (BEBM, Lonza, Allendale, N.J.) supplemented with bovine pituitary extract, insulin, hydrocortisone, gentamicin, amphotericin B, fluconazole, retinoic acid, transferrin, triiodothyronine, epinephrine, and human recombinant epidermal growth factor (serum-free BEGM) and maintained at 37° C. in a humidified incubator. After expansion in vitro, passage 2 epithelial cells were grown to >90% confluence on a 12-well plate. The medium was changed to Hanks balanced salt solution, and the cells were treated with either calcium ionophore (A23187, 10 uM) or a DMSO-containing control solution for 20 min at 37° C. In some studies, the cytosolic phospholipase A2-α inhibitor Pyr-2^6 was present at 5 uM, added from a stock solution in DMSO. The synthesis of eicosanoids was stopped by the addition of 4 volumes of ice methanol with 0.2% formic acid. […] The studies were performed in duplicate. Samples were processed for derivatization with AMPP and LC/ESI-MSMS as for the serum samples.

CNc1ccc2oc(C[C@H]3O[C@@]4(CC[C@H]3C)O[C@H]([C@H](C)C(=O)c3ccc[nH]3)[C@H](C)C[C@H]4C)nc2c1C(=O)O [Ca ionophore] was tested, and the “11(S)-HETE level” value was 3.7 pg, the “15(S)-HETE level” value was 7.8 pg and the Arachidonic acid level was 242 pg. For the same molecule, the PGD2 level was 4.4 pg, the PGE2 level was 39 pg and the PGF2α level was 60 pg. The TxB2 level was 1.3 pg.
